Results published in US20060281806A1, “Treatment and inhibition of disease conditions using flexible heteroarotinoids” (priority 2005, published 2006).

Experiments:
B16 mouse melanoma = assay: B16 melanoma syngeneic tumor model; assay type: in vivo; details: oral 60 mg/kg/day
Description: (§1) FIG. 12. Various Xenograft tumors stained with CD34 antibodies (brown) to identify endothelium. The B16 mouse melanoma cell line was established as a syngeneic tumor in an immunocompetent mouse model and the human Caki renal cancer and A2780 ovarian xenograft tumors in immunocompromised mice. The treated mice were gavaged with 60 mg/kg/day SHetA2 and the untreated were gavaged with solvent only. The tumors were excised and sections were stained with the anti-CD34 antibody to detect endothelial cells (brown stain).
(§2) Survival was the primary endpoint of those studies. […] Tumor growth was the primary endpoint of the renal cancer study.

[1] = tested on: SW962 vulvar carcinoma cultures; assay: Annexin-V-Fluos apoptosis assay (flow cytometry); assay type: cell-based; details: 10 μM; same concentration range as 4-HPR
Description: SW962 vulvar carcinoma cultures were treated with 10 μM of the indicated retinoid or the same volume of solvent. At the specified times, the cultures were labeled with Annexin-V-Fluos and propidium iodide (PI), and the number of apoptotic cells was quantified using dual-laser flow cytometric analysis.

OVCAR-3 xenograft tumors = assay: Histochemical and immunohistochemical evaluation of xenograft tumors (glands, MUC-1, TUNEL); assay type: in vivo, mouse; details: 10 mg/kg/day by gavage; end of treatment; versus control
From the text: On the last day of treatment, the animals were sacrificed and then the tumors were removed, fixed in neutral buffered formalin and embedded in paraffin. Five micron sections of the paraffin-embedded tumors were stained with hematoxylin and eosin (H&E) for histologic evaluation, and with the TUNEL (terminal deoxynucleodidyl transferase-mediated biotin-deoxyuridine triphosphate nick) FragEL kit (Oncogene Research Products, Boston, Mass.) for evaluation of apoptosis according to manufacturers instructions. MUC-1 expression was detected in tumor sections using a mouse monoclonal antibody to human MUC-1 (Pharmingen, San Diego, Calif.) and the Histostain-Plus AEC Kit (Zymed Laboratories, San Francisco, Calif.) according to manufacturers instructions. Briefly, endogenous peroxidase activity in deparaffinized sections was quenched with 3% H2O2 in methanol and then sections were incubated in serum blocking solution, and subsequently in primary antibody, diluted 1:50 in phosphate buffered saline (PBS), overnight at 4° C. in a humid chamber. Sections were then washed with PBS, treated with biotinylated secondary antibody for 15 minutes, followed by enzyme conjugate for 10 minutes. […] Tumor sections were scored for number of glands (quantified in one H&E stained sections and 3 MUC-1-stained sections) and MUC-1 and TUNEL staining (based on staining intensity and percent positive cells). […]

[2] = tested on: HT-3 cervical carcinoma cell line; assay: In vitro cytotoxicity (SRB growth inhibition) assay, HT-3; assay type: cell-based, human; design: dose or concentration left out as unconfirmed; details: 72 h
Description: (§3) The SHetA2, SHetA3, SHetA4, SHet50 and 9-cis-RA compounds were evaluated in 4 cervical carcinoma cell lines. The SiHa, CC-1 and C33a human cervical cell lines were maintained in Minimal Essential Media (MEM) containing Earle's salts and L-glutamine supplemented with nonessential amino acids, 1% sodium pyruvate, 10% fetal bovine serum (FBS) and antibiotic/antimycotic. The HT-3 cervical carcinoma cell line was cultured in McCoy's 5a medium supplemented with 10% FBS and antibiotic/antimycotic. Cells were inoculated into 96 well microtiter plates at densities of 1000 cells/well and incubated for 24 h prior to addition of drugs. Drugs were dissolved in dimethyl sulfoxide (DMSO) and diluted in complete medium, prior to addition to triplicate culture wells to achieve final concentrations of […]. Following drug addition, the plates were incubated for 72 h. The assay was terminated by the addition of cold TCA and the cells were stained with 0.4% sulforhodamine B (SRB) in 1% acetic acid. Bound stain was subsequently solubilized with 10 mM trizma base, and the absorbance was read on an automated plate reader at a wavelength of 560 nm. Growth inhibition was determined by dividing the average Optical Density (OD) of the triplicated treated cultures by the average OD of the triplicate control cultures treated with DMSO solvent only. This ratio was converted into a percentage by multiplying by 100. The potency (concentration required to induce half of the maximal activity—GI50) were derived from dose-response graphs generated with results from 3 to 5 individual experiments using GraphPad Software.

[3] = tested on: C33a human cervical cell line; assay: In vitro cytotoxicity (SRB growth inhibition) assay, C33a; assay type: cell-based; design: dose or concentration left out as unconfirmed; details: 72 h
Description: as §3

[4] = tested on: human Caki renal cancer xenografts; assay: Caki renal cancer xenograft model; assay type: in vivo, mouse
Description: as §1
FIG. 20. Mice harboring Caki renal cancer xenografts were treated with 60 mg/kg/day SHetA2 or PEG400 vehicle for 15 days. After another 15 days of growth, the tumors were removed, fixed, embedded and sections. Sections were stained with PAS to identify glycoproteins and lysosomes. The untreated tumor is on the left and the treated tumor is on the right.
as §2

[5] = tested on: EAhy.926 endothelial cells; assay: Growth/viability of endothelial cells versus ovarian cancer cell lines; assay type: cell-based; details: SHetA2 for 24 hours
Description: The graph on the left provides quantification of the endothelial branches for each treatment dose.
The increased thickness of the vessels at 1 μM and the increasing proportions of solitary clumps of cells at 5 and 10 μM indicate that SHetA2 is inhibiting endothelial cell migration. To determine if this anti-angiogenic activity was due to growth inhibition or cytotoxicity. The viability of the endothelial cells treated with SHetA2 for 24 hours was evaluated. […] This confirms the therapeutic ratio observed in previous studies.

NF-κB = NF-κB luciferase reporter assay in A2780 cultures; assay type: cell-based; details: 10 μM SHetA2, inhibition increased over 4 hours
Description: FIG. 15. SHetA2 Inhibition of NF-κB. A2780 cultures were transfected with the NF-κB reporter and treated with 10 μM SHetA2 for the indicated times. Cell lysates were prepared and evaluated for luciferase activity which was normalized for protein concentration.
Because both TP and TSP4 have DNA binding sites for the NFκB transcription factor in their promoter, the ability of SHetA2 to inhibit activity of NF-κB in ovarian cancer cultures was tested using a luciferase reporter plasmid driven by NF-κB sites in the promoter. […] Inhibition increased over the 4 hour evaluation time (FIG. 15).

## CC1(C)CC(C)(C)c2cc(NC(=S)Nc3ccc([N+](=O)[O-])cc3)ccc2S1 [SHetA2]
B16 mouse melanoma; melanoma model
  survival: improved survival
B16 mouse melanoma; melanoma
  development of blood vessels inside tumors (anti-CD34 staining): inhibited the development of blood vessels
[1]
  induction of apoptosis (Annexin-V-Flous assay): induced apoptosis
OVCAR-3 xenograft tumors
  MUC-1 expression in xenograft tumors: increase staining for mucin-1 (MUC1) protein
  gland formation (numbers of glands) in xenograft tumors: greatest degree of gland induction
[2]
  Efficacy: percent growth inhibition relative to the untreated control: 92%
[3]
  Efficacy: percent growth inhibition relative to the untreated control: 87%
[4]; renal cancer model, oral 60 mg/kg/day
  tumor growth: decreased tumor growth
[4]; renal xenograft tumors, 60 mg/kg/day for 15 days, versus untreated tumors
  PAS stain: general glycoprotein expression and lysosomal staining: increase in general glycoprotein expression and lysosomal staining
[4]; renal, oral 60 mg/kg/day
  development of blood vessels inside tumors (anti-CD34 staining): inhibited the development of blood vessels
[5]
  growth inhibition of endothelial cells compared with A2780 and OVCAR-3: much less growth inhibited
NF-κB
  time to inhibition of NF-κB reporter activity: ≤ 30 min
